# Molecular target: Pim-1 kinase (Homo sapiens, UniProt P11309)
# Experiment: Pim-1 kinase inhibition assay (Promega Kinase-Glo)
# Assay type: biochemical
# Settings: not given
# Excerpt: One illustrative manner in which Pim-1 kinase activity can be determined is by quantifying the amount of ATP remaining in solution after an in vitro Pim-1 kinase reaction. The Kinase-Glo Assay Kit (Promega, Inc., Madison, WI) allows this. The amount of ATP remaining in the solution after the kinase reaction serves as a substrate for the luciferase to catalyze luciferin to oxyluciferin plus one photon of light. Thus, the luminescent signal read by the Luminoskan Ascent Instrument (Thermo Electron Corp., Milford, MA) correlates with the amount of ATP present after the kinase reaction and inversely correlates with the amount of kinase acitivity. […] These assays are set up in duplicate 50ul volumes in white, flat bottom 96 well plates. […] This solution is incubated at 30 degrees Celsius at 360rpm for two hours. Following the incubation, 50ul of Kinase-Glo reagent is added to each well, including all positive and negative control wells, and incubated at room temperature for 15 minutes. […] The IC50 values can then be calculated for each inhibitor tested.
row,SMILES,IC50
1,"CC(C)(O)[C@H]1CC[C@H](Oc2ccc3ncc(-c4cccc(Cl)c4)n3n2)CC1 [8-77, 2-(trans-4-((3-(3-chlorophenyl)imidazo[1,2-b]pyridazin-6-yl)oxy)cyclohexyl)propan-2-ol]",[…]

# Same assay, conditions: Table IV; Kinase-Glo, 10uM ATP; read-out: IC50 on Pim1
# Sequence of Pim-1 kinase (P11309 whole entry): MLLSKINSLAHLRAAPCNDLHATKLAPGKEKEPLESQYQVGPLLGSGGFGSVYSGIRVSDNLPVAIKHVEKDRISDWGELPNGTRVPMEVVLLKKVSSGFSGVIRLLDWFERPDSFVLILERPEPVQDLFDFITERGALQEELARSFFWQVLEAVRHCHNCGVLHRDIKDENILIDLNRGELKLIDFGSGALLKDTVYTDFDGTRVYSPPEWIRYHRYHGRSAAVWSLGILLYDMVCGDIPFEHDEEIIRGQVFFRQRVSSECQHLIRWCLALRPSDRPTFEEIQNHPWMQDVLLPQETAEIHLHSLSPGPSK
row,SMILES,IC50
1,"NCC1CCN(c2ccc3ncc(-c4cccc(OC(F)(F)F)c4)n3n2)C(=O)C1 (stereo not shown) [8-24, 4-(Aminomethyl)-1-(3-(3-(trifluoromethoxy)phenyl)imidazo[1,2-b]pyridazin-6-y/)piperidin-2-one]",0.034 µM
2,"N[C@H]1CCCN(c2ccc3ncc(-c4cccc(OC(F)(F)F)c4)n3n2)C1 [8-25, (S)-1-(3-(3-(Trifluoromethoxy)phenyl)imidazo[1,2-b]pyridazin-6-yl)piperidin-3-amine]",0.03 µM
3,"CC1(O)CCC(Nc2ccn3ncc(-c4cccc(C(F)(F)F)c4)c3n2)CC1 (single isomer, unassigned) [8-55, 1-Methyl-4-((3-(3-(trifluoromethyl)phenyl)pyrazolo[1,5-a]pyrimidin-5-yl)amino)-trans-cyclohexanol]",0.054 µM
4,"FC(F)(F)Oc1cccc(-c2cnc3ccc(NCC4CCSCC4)nn23)c1 [8-18, N-((tetrahydro-2H-thiopyran-4-yl)methyl)-3-(3-(trifluoromethoxy)phenyl)imidazo[1,2-b]pyridazin-6-amine]",0.053 µM
5,"CC(C)O[C@H]1CC[C@H](Nc2ccc3ncc(-c4cccc(OC(F)(F)F)c4)n3n2)CC1 [8-16, 4-(trans-Isopropoxycyclohexyl)-3-(3-(trifluoromethoxy)phenyl)imidazo[1,2-b]pyridazin-6-amine]",0.503 µM
6,"O=S1(=O)CCC(Nc2ccc3ncc(-c4cccc(OC(F)(F)F)c4)n3n2)CC1 [8-14, 4-((3-(3-(Trifluoromethoxy)pheny/)imidazo[1,2-]pyridazin-6-yl)amino)tetrahydro-2H-thiopyran 1,1-dioxide]",1.19 µM
7,"ON=C1CCC(Nc2ccc3ncc(-c4cccc(Cl)c4)n3n2)CC1 (stereo not shown) [8-92, 4-((3-(3-chlorophenyl)imidazo[1,2-b]pyridazin-6-yl)amino)cyclohexanone oxime]",0.038 µM
8,"FC(F)(F)c1cccc(-c2cnc3ccc(NC4CCOCC4)nn23)c1 [8-33, N-(Tetrahydro-2H-pyran-4-yl)-3-(3-(trifluoromethyl)phenyl)imidazo[1,2-b]pyridazin-6-amine]",0.033 µM
9,"O=C1CC(CNc2ccc3ncc(-c4cccc(OC(F)(F)F)c4)n3n2)CCN1 (stereo not shown) [8-23, 4-(((3-(3-(Trifluoromethoxy)phenyl)imidazo[1,2-b]pyridazin-6-yl)amino)methyl)piperidin-2-one]",1.63 µM
10,"N[C@H]1CCCN(c2ccn3ncc(-c4cccc(OC(F)(F)F)c4)c3n2)C1 [8-53, (S)-1-(3-(3-(Trifluoromethoxy)phenyl)pyrazolo[1,5-a]pyrimidin-5-yl)piperidin-3-amine]",0.132 µM
11,"CC(C)(O)CCNc1ccc2ncc(-c3cccc(OC(F)(F)F)c3)n2n1 [8-3, 2-Methyl-4-((3-(3-(trifluoromethoxy)phenyl)imidazo[1,2-b]pyridazin-6-yl)amino)butan-2-ol]",0.03 µM
12,"FC(F)(F)c1cccc(-c2cnn3ccc(NC4CCOCC4)nc23)c1 [8-58, N-(Tetrahydro-2H-pyran-4-yl)-3-(3-(trifluoromethyl)phenyl)pyrazolo[1,5-a]pyrimidin-5-amine]",0.149 µM
13,"COCCOc1ccc2ncc(-c3cccc(OC(F)(F)F)c3)n2n1 [8-42, 6-(2-Methoxyethoxy)-3-(3-(trifluoromethoxy)phenyl)imidazo[1,2-b]pyridazine]",1.97 µM
14,"O[C@H]1CC[C@H](Oc2ccc3ncc(-c4cccc(OC(F)(F)F)c4)n3n2)CC1 [8-4, 4-((3-(3-(Trifluoromethoxy)phenyl)imidazo[1,2-b]pyridazin-6-yl)oxy)-trans-cyclohexanol]",0.007 µM
15,"CN(C)CC(=O)N1CCC(CNc2ccc3ncc(-c4cccc(OC(F)(F)F)c4)n3n2)CC1 [8-45, 2-(dimethylamino)-1-(4-(((3-(3-(trifluoromethoxy)phenyl)imidazo[1,2-b]pyridazin-6-yl)amino)methyl)piperidin-1-yl)ethanone]",0.016 µM
16,CC(C)(O)[C@H]1CC[C@H](Nc2ccn3ncc(-c4cccc(Cl)c4)c3n2)CC1 [8-63],0.023 µM
17,"O=S1(=O)CCC(CNc2ccn3ncc(-c4cccc(C(F)(F)F)c4)c3n2)CC1 [8-59, 4-(((3-(3-(Trifluoromethyl)phenyl)pyrazolo[1,5-a]pyrimidin-5-yl)amino)methyl)tetrahydro-2H-thiopyran 1,1-dioxide]",0.111 µM
18,"CC(C)(O)CNc1ccc2ncc(-c3cccc(OC(F)(F)F)c3)n2n1 [8-6, 2-Methyl-1-((3-(3-(trifluoromethoxy)phenyl)imidazo[1.2-b]pyridazin-6-yl)amino)propan-2-ol]",0.03 µM
19,"FC(F)(F)Oc1cccc(-c2cnn3ccc(NC4CCOCC4)nc23)c1 [8-50, N-(Tetrahydro-2H-pyran-4-yl)-3-(3-(trifluoromethoxy)phenyl)pyrazolo[1,5-a]pyrimidin-5-amine]",0.633 µM
20,"O=C(CN1CCOCC1)N1CCC(CNc2ccc3ncc(-c4cccc(OC(F)(F)F)c4)n3n2)CC1 [8-21, 2-Morpholino-1-(4-(((3-(3-(trifluoromethoxy)phenyl)imidazo[1,2-b]pyridazin-6-yl)amino)methyl)piperidin-1-yl)ethanone]",0.046 µM
21,O=S1(=O)CCC(CNc2ccc3ncc(-c4cccc(Cl)c4)n3n2)CC1 [8-40],0.2 µM
22,"O=S1(=O)CCN(c2ccc3ncc(-c4cccc(OC(F)(F)F)c4)n3n2)CC1 [8-15, 4-(3-(3-(Trifluoromethoxy)phenyl)imidazo[1,2-b]pyridazin-6-yl)thiomorpholine 1,1-dioxide]",2.83 µM
23,"CO[C@H]1CC[C@H](Nc2ccn3ncc(-c4cccc(C(F)(F)F)c4)c3n2)CC1 [8-57, 4-(trans-Methoxycyclohexyl)-3-(3-(trifluoromethyl)phenyl)pyrazolo[1,5-a]pyrimidin-5-amine]",0.066 µM
24,"C[C@]1(O)CC[C@H](Nc2ccn3ncc(-c4cccc(OC(F)(F)F)c4)c3n2)CC1 [8-48, 1-Methyl-4-((3-(3-(trifluoromethoxy)phenyl)pyrazolo[1,5-a]pyrimidin-5-yl)amino)-trans-cvclohexanol]",0.197 µM
25,"NC1CCCC(Nc2ccc3ncc(-c4cccc(Cl)c4)n3n2)C1 (stereo not shown) [8-70, N^1-(3-(3-chlorophenyl)imidazo[1,2-b]pyridazin-6-yl)cyclohexane-1,3-diamine]",0.008 µM

# Further lines, results first:
row,IC50,SMILES
1,0.012 µM,"N[C@H]1CCCN(c2ccc3ncc(-c4cccc(Cl)c4)n3n2)C1 [8-71, (S)-1-(3-(3-chlorophenyl)imidazo[1,2-b]pyridazin-6-yl)piperidin-3-amine]"
2,0.045 µM,"CN1CCC(CNc2ccn3ncc(-c4cccc(OC(F)(F)F)c4)c3n2)CC1 [8-67, N-((1-Methylpiperidin-4-yl)methyl)-3-(3-(trifluoromethoxy)phenyl)pyrazolo[1,5-a]pyrimidin-5-amine]"
3,0.164 µM,"O=S1(=O)CCC(CNc2ccn3ncc(-c4cccc(Cl)c4)c3n2)CC1 [8-66, 4-(((3-(3-Chlorophenyl)pyrazolo[1,5-a]pyrimidin-5-yl)amino)methyl)tetrahydro-2H-thiopyran 1.1-dioxide]"
4,0.056 µM,"CC(C)(O)[C@H]1CC[C@H](Nc2ccc3ncc(-c4cccc(F)c4)n3n2)CC1 [8-75, 2-(trans-4-((3-(3-fluorophenyl)imidazo[1,2-b]pyridazin-6-yl)amino)cyclohexyl)propan-2-ol]"
5,0.094 µM,"N[C@H]1CCCN(c2ccn3ncc(-c4cccc(Cl)c4)c3n2)C1 [8-96, (S)-1-(3-(3-chlorophenyl)pyrazolo[1,5-a]pyrimidin-5-yl)piperidin-3-amine]"
6,0.186 µM,"Clc1cccc(-c2cnn3ccc(NC4CCOCC4)nc23)c1 [8-65, 3-(3-Chlorophenyl)-N-(tetrahydro-2H-pyran-4-yl)pyrazolo[1,5-a]pyrimidin-5-amine]"

# Same assay, conditions: Table V; Kinase-Glo, 10uM ATP; read-out: IC50 on Pim1
row,IC50,SMILES
1,2.49 µM,"FC(F)(F)Oc1cccc(-c2nnc3ccc(N[C@H]4CC[C@@H](Br)CC4)cn23)c1 [8-105, 4-(cis-Bromocyclohexyl)-3-(3-(trifluoromethoxy)phenyl)-(1,2,4]triazolo[4,3-a]pyridin-6-amine]"
2,3.17 µM,"FC(F)(F)c1cccc(-c2nnc3ccc(NC4CCOCC4)cn23)c1 [8-110, N-(Tetrahydro-2H-pyran-4-y/)-3-(3-(trifluoromethy/)pheny/)-[1,2,4]triazolo[4,3-a]pyridin-6-amine]"
3,0.684 µM,"O[C@H]1CC[C@H](Nc2ccc3nnc(-c4cccc(OC(F)(F)F)c4)n3c2)CC1 [8-104, 4-((3-(3-(Trifluoromethoxy)phenyl)-[1,2,4]triazolo[4,3-a]pyridin-6-yl)amino)-trans-cyclohexanol]"
4,3.87 µM,CC(C)(O)[C@H]1CC[C@H](Nc2ccc3nnc(-c4cccc(C(F)(F)F)c4)n3c2)CC1 [8-109]
5,3.25 µM,"FC(F)(F)Oc1cccc(-c2nnc3ccc(NC4CCOCC4)cn23)c1 [8-102, N-(Tetrahydro-2H-pyran-4-yl)-3-(3-(trifluoromethoxy)phenyl)-[1,2,4]triazolo[4,3-a]pyridin-6-amine]"
6,3.8 µM,"O=S1(=O)CCC(CNc2ccc3nnc(-c4cccc(OC(F)(F)F)c4)n3c2)CC1 [8-103, 4-(((3-(3-(Trifluoromethoxy)phenyl)-[1,2,4]triazolo[4,3-a]pyridin-6-y/)amino)methyl)tetrahydro-2H-thiopyran 1,1-dioxide]"

# Same assay, conditions: Table V; cells that print µM; read-out: IC50 on Pim1
row,IC50,SMILES
1,> 30 µM,"OCCOc1ccc2nnc(-c3cccc(C(F)(F)F)c3)n2c1 [8-112, 2-((3-(3-(trifluoromethyl)phenyl)-[1,2,4]triazolo[4,3-a]pyridin-6-yl)oxy)ethanol]"
2,> 30 µM,O=S1(=O)CCC(CNc2ccc3nnc(-c4cccc(C(F)(F)F)c4)n3c2)CC1 [8-111]
